The values that follow come from US11168087B2, “Substituted imidazo[1,2-b]pyridazines, substituted imidazo[1,5-b]pyridazines, related compounds, and their use in the treatment of medical disorders” (BIAL—R&D Investments, S.A., priority 2016, dated 2021).

SMILES strings stand for the structures.

For the experiment, the target named is T1, glucocerebrosidase (Gcase) (Homo sapiens, UniProt P04062).
T1 construct: micellar solution containing 10 nM GCase and 100 nM saposin C
T1 sequence (P04062 40-536): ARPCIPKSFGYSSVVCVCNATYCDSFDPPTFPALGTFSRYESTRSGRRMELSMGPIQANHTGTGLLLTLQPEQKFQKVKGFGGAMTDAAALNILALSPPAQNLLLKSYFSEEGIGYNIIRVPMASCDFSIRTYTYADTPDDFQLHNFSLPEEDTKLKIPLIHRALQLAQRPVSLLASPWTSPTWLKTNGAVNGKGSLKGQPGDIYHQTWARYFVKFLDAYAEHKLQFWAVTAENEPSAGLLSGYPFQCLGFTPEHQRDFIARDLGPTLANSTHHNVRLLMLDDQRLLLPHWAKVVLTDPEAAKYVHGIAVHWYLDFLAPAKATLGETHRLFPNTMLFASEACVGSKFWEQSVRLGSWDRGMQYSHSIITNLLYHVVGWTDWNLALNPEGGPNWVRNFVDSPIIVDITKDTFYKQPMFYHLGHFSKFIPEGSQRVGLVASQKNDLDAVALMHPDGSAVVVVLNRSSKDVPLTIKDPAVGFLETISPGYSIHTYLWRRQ
As to the kind of experiment: Glucocerebrosidase (Gcase) activation assay, 4-methylumbelliferyl-beta-D-glucopyranoside substrate, with saposin C. Format: biochemical. To be noted: 0.25 h; for activation at 0.1 µM: read-out: Percent Gcase Activation 0.1 μM Test Compound; for activation at 1 µM: read-out: Percent Gcase Activation 1 μM Test Compound. The procedure:
The ability of exemplary compounds to activate glucocerebrosidase (Gcase) was measured.
A 484 μL aliquot of a 1.0 mg/mL solution of phosphatidylserine (PS) (Sigma P7769) in chloroform was evaporated under a stream of nitrogen for 1 hour. The lipid film was dissolved over 4 minutes of vigorous vortexing in 40 mL of 176 mM K2HPO4/50 mM citric acid (pH 4.7) containing 7.5 μL of triton X-100, resulting in a mixed micellar preparation with a composition of 0.32 mM triton and 0.37 mol % PS. 4-Methylumbelliferyl-beta-D-glucopyranoside (ACROS-337025000) was dissolved in the micellar solution to a final concentration of 2 mM for use as the reaction substrate.
Test compounds were diluted to the desired concentrations with dimethylsulfoxide (DMSO) from 10 mM stocks, and 0.41 μL of the DMSO compound mixture was added to 100 μL of micellar solution containing 10 nM GCase and 100 nM saposin C (Enzo ALX-201-262-C050). Pre-incubation was allowed to occur for 30 minutes at room temperature, after which the reaction was initiated by combining 25 μL of substrate solution with 25 μL of compound/GCase/saposin mixture. The reaction proceeded for 15 minutes at room temperature and was stopped by adding 150 μL of 1M glycine, pH 12.5. The endpoint of the reaction was monitored by measuring fluorescence intensity (excitation: 365 nm; emission: 440 nm) on a SpectraMax i3 instrument (Molecular Devices). Test compounds were screened at 1.0 and 0.1 μM final concentration, and subsequent 8-point dose response curves were obtained using 3-fold dilutions from a maximum final concentration of 5 μM.
The symbol “+” indicates less than 5% Gcase activation; the symbol “++” indicates Gcase activation in the range of 5% up to 20%; and the symbol “+++” indicates Gcase activation greater than 20%.

`CCCCCCOC1CCC(NC(=O)c2cnc3cc(C)c(Cl)nn23)CC1` (stereo not drawn): the activation at 0.1 µM is < 5% and the activation at 1 µM was < 5%.
In the case of `Cc1cc2ncc(C(=O)Nc3ccc4c(c3)CCC4)n2nc1Cl`, the activation at 0.1 µM is < 5% and the activation at 1 µM was 5 to 20%.
Turning to `O=C(Nc1ccc2c(c1)CCC2)c1cnc2ccc(Cl)nn12`, the activation at 0.1 µM is < 5% and the activation at 1 µM was 5 to 20%.
For `O=C(NC1CCCc2ccccc21)c1cnc2ccc(Cl)nn12` (stereo not drawn), the activation at 0.1 µM is < 5% and the activation at 1 µM lay within 5 to 20%.
On the same counts, the results for `CCC(NC(=O)c1cnc2ccc(Cl)nn12)c1ccccc1` (stereo not drawn) are < 5% and < 5%.
Consider `CCCCCO[C@H]1CC[C@H](NC(=O)c2cnc3ccc(Cl)nn23)CC1`, for which the activation at 0.1 µM is < 5% and the activation at 1 µM was 5 to 20%.
Consider `Cc1cc(C)c2ncc(C(=O)Nc3ccc(-c4cocn4)cc3)n2n1`, for which the activation at 0.1 µM was < 5% and the activation at 1 µM was > 20%.
In the case of `Cc1cc(C)c2ncc(C(=O)Nc3ccc4c(c3)CCC4)n2n1`, the activation at 0.1 µM is 5 to 20% and the activation at 1 µM is > 20%.
Take `Cc1cc(C)c2ncc(C(=O)NC3CCCc4ccccc43)n2n1` (stereo not drawn): the activation at 0.1 µM lay in the range of 5 to 20% and the activation at 1 µM was > 20%.
On to `CCC(NC(=O)c1cnc2c(C)cc(C)nn12)c1ccccc1` (stereo not drawn), for which the activation at 0.1 µM was < 5% and the activation at 1 µM was > 20%.
The matching figures for `CCCCCO[C@H]1CC[C@H](NC(=O)c2cnc3c(C)cc(C)nn23)CC1`: 5 to 20% and > 20%.
The matching figures for `Cc1cc(C)c2ncc(C(=O)NC3(C)CCCc4ccccc43)n2n1` (stereo not drawn): 5 to 20% and > 20%.
The matching figures for `C#Cc1ccc(NC(=O)c2cnc3c(C)cc(C)nn23)cc1`: 5 to 20% and > 20%.
Consider `CCCCCCOC1CCC(NC(=O)c2cnc3c(C)cc(Cl)nn23)CC1` (stereo not drawn), for which the activation at 0.1 µM lay within 5 to 20% and the activation at 1 µM is > 20%.
For `Cc1cc(Cl)nn2c(C(=O)Nc3ccc4c(c3)CCC4)cnc12`, the activation at 0.1 µM lay within 5 to 20% and the activation at 1 µM is > 20%.
Take `C#Cc1ccc(NC(=O)c2cnc3ccc(Cl)nn23)cc1`: the activation at 0.1 µM lay within 5 to 20% and the activation at 1 µM was 5 to 20%.
In the case of `C#Cc1ccc(NC(=O)c2ncc3c(C)cc(C)nn23)cc1`, the activation at 0.1 µM is < 5% and the activation at 1 µM was > 20%.
The matching figures for `CCC(NC(=O)c1ncc2c(C)cc(C)nn12)c1ccccc1` (stereo not drawn): < 5% and > 20%.
With `Cc1cc(C)c2cnc(C(=O)NC3CCCc4ccccc43)n2n1` (stereo not drawn), the activation at 0.1 µM lay within 5 to 20% and the activation at 1 µM is > 20%.
For the compound `Cc1cc(C)c2cnc(C(=O)Nc3ccc4c(c3)CCC4)n2n1`, the activation at 0.1 µM is > 20% and the activation at 1 µM was > 20%.
In the case of `Cc1cc(C)c2cnc(C(=O)Nc3ccc(-c4cocn4)cc3)n2n1`, the activation at 0.1 µM was < 5% and the activation at 1 µM was > 20%.
On the same counts, the results for `Cc1cc(C)c2ncc(C(=O)N[C@@H](C)C3CC3)n2n1` are < 5% and 5 to 20%.
On the same counts, the results for `Cc1cc(C)c2ncc(C(=O)NC(C)(C)C3CC3)n2n1` are 5 to 20% and > 20%.
The matching figures for `Cc1cc(C)c2ncc(C(=O)NC(C3CC3)C(F)(F)F)n2n1` (stereo not drawn): < 5% and > 20%.
For `Cc1cc(-c2ccc(F)cc2)nn2c(C(=O)NC(C)(C)C3CC3)cnc12`, the activation at 0.1 µM is 5 to 20% and the activation at 1 µM is > 20%.
For the compound `Cc1cc(-c2ccc(F)cc2)nn2c(C(=O)N[C@@H](C)C3CC3)cnc12`, the activation at 0.1 µM lay in the range of 5 to 20% and the activation at 1 µM was > 20%.
On the same counts, the results for `Cc1cc(-c2cccnc2)nn2c(C(=O)NC(C3CC3)C(F)(F)F)cnc12` (stereo not drawn) are < 5% and > 20%.
On the same counts, the results for `Cc1cc(-c2cccc(F)c2)nn2c(C(=O)NC(C)(C)C3CC3)cnc12` are > 20% and > 20%.
For `Cc1cc(-c2cccc(F)c2)nn2c(C(=O)NC(C3CC3)C(F)(F)F)cnc12` (stereo not drawn), the activation at 0.1 µM is > 20% and the activation at 1 µM is > 20%.
`COc1cccc(-c2cc(C)c3ncc(C(=O)NC(C4CC4)C(F)(F)F)n3n2)c1` (stereo not drawn): the activation at 0.1 µM was > 20% and the activation at 1 µM was > 20%.
As to `COc1cccc(-c2cc(C)c3ncc(C(=O)NC(C4CC4)C4CC4)n3n2)c1`, the activation at 0.1 µM was > 20% and the activation at 1 µM is > 20%.
As for `Cc1cc(-c2ccns2)nn2c(C(=O)NC(C)(C)C3CC3)cnc12`, the activation at 0.1 µM fell in the range of 5 to 20% and the activation at 1 µM was > 20%.
`C#CC(C)(C)NC(=O)c1cnc2c(C)cc(-c3ccns3)nn12`: the activation at 0.1 µM was < 5% and the activation at 1 µM is > 20%.
Regarding `Cc1cc(-c2ccns2)nn2c(C(=O)NC(C3CC3)C(F)(F)F)cnc12` (stereo not drawn), the activation at 0.1 µM was 5 to 20% and the activation at 1 µM is > 20%.
The matching figures for `Cc1cc(-c2ccc3ocnc3c2)nn2c(C(=O)NC(C)C3CC3)cnc12` (stereo not drawn): > 20% and > 20%.
The matching figures for `Cc1cc(-c2ccc3ocnc3c2)nn2c(C(=O)NC(C3CC3)C(F)(F)F)cnc12` (stereo not drawn): > 20% and > 20%.
On the same counts, the results for `Cc1cc(-c2cccc3ocnc23)nn2c(C(=O)NC(C3CC3)C(F)(F)F)cnc12` (stereo not drawn) are 5 to 20% and > 20%.
On to `COc1cccc(-c2cc(C)c3ncc(C(=O)NC(C4CC4)C(F)(F)F)n3n2)n1` (stereo not drawn), for which the activation at 0.1 µM was > 20% and the activation at 1 µM is > 20%.
Consider `Cc1cc(-c2cccc(F)c2)nn2c(C(=O)NC(C)C(F)(F)F)cnc12` (stereo not drawn), for which the activation at 0.1 µM lay in the range of 5 to 20% and the activation at 1 µM was > 20%.
The matching figures for `Cc1cc(-c2cccc3ncoc23)nn2c(C(=O)NC(C3CC3)C(F)(F)F)cnc12` (stereo not drawn): 5 to 20% and > 20%.
`Cc1cc(-c2cccc3ncoc23)nn2c(C(=O)NC(C)C(F)(F)F)cnc12` (stereo not drawn): the activation at 0.1 µM was < 5% and the activation at 1 µM is > 20%.
With `Cc1cc(-c2ccc3ocnc3c2)nn2c(C(=O)NC(C)C(F)(F)F)cnc12` (stereo not drawn), the activation at 0.1 µM was > 20% and the activation at 1 µM is > 20%.
`Cc1cc(-c2ccc(F)cc2C#N)nn2c(C(=O)NC(C3CC3)C(F)(F)F)cnc12` (stereo not drawn): the activation at 0.1 µM is 5 to 20% and the activation at 1 µM was > 20%.
Regarding `Cc1cc(-c2ccc(F)cc2C#N)nn2c(C(=O)NC(C)C(F)(F)F)cnc12` (stereo not drawn), the activation at 0.1 µM lay within 5 to 20% and the activation at 1 µM was > 20%.
Take `Cc1cc(-c2occc2C#N)nn2c(C(=O)NC(C3CC3)C(F)(F)F)cnc12` (stereo not drawn): the activation at 0.1 µM was > 20% and the activation at 1 µM is > 20%.
Consider `Cc1cc(-c2ccc3ocnc3c2)nn2c(C(=O)N[C@H](C)C(F)(F)F)cnc12`, for which the activation at 0.1 µM was 5 to 20% and the activation at 1 µM is > 20%.
On the same counts, the results for `Cc1cc(-c2ccc3ocnc3c2)nn2c(C(=O)N[C@@H](C)C(F)(F)F)cnc12` are > 20% and > 20%.
On the same counts, the results for `Cc1cc(-c2ccc(F)cc2C#N)nn2c(C(=O)N[C@H](C3CC3)C(F)(F)F)cnc12` are 5 to 20% and > 20%.
Turning to `Cc1cc(-c2ccc(F)cc2C#N)nn2c(C(=O)N[C@@H](C3CC3)C(F)(F)F)cnc12`, the activation at 0.1 µM was > 20% and the activation at 1 µM was > 20%.
With `Cc1cc(-c2ccc(C(N)=O)o2)nn2c(C(=O)N[C@@H](C3CC3)C(F)(F)F)ncc12`, the activation at 0.1 µM is 5 to 20% and the activation at 1 µM is > 20%.
On the same counts, the results for `Cc1cc(-c2ccc(C#N)o2)nn2c(C(=O)N[C@@H](C3CC3)C(F)(F)F)ncc12` are > 20% and > 20%.
